Laboratory results published in paper PMC3081938 (Journal of natural products, 2011).
“Also recorded” adds a separate entry of the source.

Tests used:
KOP receptors [1] = target: T1, KOP receptors (Homo sapiens, UniProt P41145); test: biochemical; format: biochemical
5-HT2A receptor = conditions: cited from earlier work
[2] = test system: opioid mediated antinociceptive properties; conditions: rats; cited from earlier work
κ opioid (KOP) receptors = conditions: cited from earlier work
[3] = test system: locomotor effects of cocaine; conditions: rats; cited from earlier work
DOP receptors = DOP receptors (Homo sapiens, UniProt P41143); format: binding
KOP receptors [4] = target: T1, KOP receptors; test: biochemical; format: binding

T1 sequence (P41145 whole entry): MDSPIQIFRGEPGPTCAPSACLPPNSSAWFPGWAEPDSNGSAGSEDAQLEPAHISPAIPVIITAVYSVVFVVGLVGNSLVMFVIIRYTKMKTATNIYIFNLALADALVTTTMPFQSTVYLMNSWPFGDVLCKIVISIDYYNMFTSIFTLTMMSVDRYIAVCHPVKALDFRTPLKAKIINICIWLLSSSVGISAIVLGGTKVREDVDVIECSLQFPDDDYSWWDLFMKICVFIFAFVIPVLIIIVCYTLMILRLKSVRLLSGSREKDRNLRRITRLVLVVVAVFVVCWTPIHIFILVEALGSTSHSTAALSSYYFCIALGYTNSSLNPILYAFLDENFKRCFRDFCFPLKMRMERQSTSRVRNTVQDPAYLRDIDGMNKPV
Sequence of DOP receptors (P41143 whole entry): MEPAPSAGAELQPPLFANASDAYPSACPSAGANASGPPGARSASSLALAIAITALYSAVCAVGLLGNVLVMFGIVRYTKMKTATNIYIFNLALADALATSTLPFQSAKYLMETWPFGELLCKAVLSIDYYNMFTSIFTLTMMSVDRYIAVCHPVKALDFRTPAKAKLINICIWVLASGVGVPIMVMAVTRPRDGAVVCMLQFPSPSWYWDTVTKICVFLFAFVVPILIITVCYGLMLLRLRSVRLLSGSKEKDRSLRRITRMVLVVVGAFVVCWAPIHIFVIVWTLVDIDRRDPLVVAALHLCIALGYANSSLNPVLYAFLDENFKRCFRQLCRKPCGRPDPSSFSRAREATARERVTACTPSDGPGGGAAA

SMILES: COC(=O)[C@@H]1C[C@H](OC(C)=O)C(=O)[C@H]2[C@@]1(C)CC[C@H]1C(=O)O[C@H](c3ccoc3)C[C@]21C [Compound 1, (2S,4aR,6aR,7R,9S,10aS,10bR)-methyl 9-acetoxy-2-(furan-3-yl)-6a,10b-dimethyl-4,10-dioxo-dodecahydro-1H-benzo[f]isochromene-7-carboxylate]
- KOP ED50 ± SD (KOP receptors [1]): 0.04 µM
- Affinity for the 5-HT2A receptor (5-HT2A receptor): does not have any affinity
- Antinociceptive properties [2]: opioid mediated antinociceptive properties
- Agonism at κ opioid (KOP) receptors (κ opioid (KOP) receptors): full agonist
- Effect on locomotor effects of cocaine [3]: can block the locomotor effects of cocaine

SMILES: CCOC(=O)C1=C(C(=O)OCC)C2OC1C=C2[C@@H]1C[C@]2(C)[C@H]3C(=O)[C@@H](OC(C)=O)C[C@@H](C(=O)OC)[C@]3(C)CC[C@H]2C(=O)O1 (stereo partly drawn) [Compound 5, Diethyl 5-((2S,4aR,6aR,7R,9S,10aS,10bR)-9-acetoxy-7-(methoxycarbonyl)-6a,10b-dimethyl-4,10-dioxododecahydro-1H-benzo[f]isochromen-2-yl)-7-oxabicyclo[2.2.1]hepta-2,5-diene-2,3-dicarboxylate]
- Fold increase in affinity for DOP receptors (DOP receptors): over 4 fold
- EC50 (KOP receptors [1]): 2.15 µM
- Efficacy at KOP receptors (in words) (KOP receptors [1]): full agonists; also recorded: high efficacy

SMILES: COC(=O)C1=C(C(=O)OC)C2OC1C=C2[C@@H]1C[C@]2(C)[C@H]3C(=O)[C@@H](OC(C)=O)C[C@@H](C(=O)OC)[C@]3(C)CC[C@H]2C(=O)O1 (stereo partly drawn) [Compound 6, Dimethyl 5-((2S,4aR,6aR,7R,9S,10aS,10bR)-9-acetoxy-7-(methoxycarbonyl)-6a,10b-dimethyl-4,10-dioxododecahydro-1H-benzo[f]isochromen-2-yl)-7-oxabicyclo[2.2.1]hepta-2,5-diene-2,3-dicarboxylate]
- EC50 (KOP receptors [1]): 0.98 ± 0.2 µM
- Efficacy at KOP receptors (in words) (KOP receptors [1]): full agonist

SMILES: COC(=O)[C@@H]1C[C@H](OC(C)=O)C(=O)[C@H]2[C@@]1(C)CC[C@H]1C(=O)O[C@H](C3=CC4OC3C3C5OC(c6c5c5ccccc5c(=O)c5ccccc65)C43)C[C@]21C (stereo partly drawn) [Compound 11, (2S,4aR,6aR,7R,9S,10aS,10bR)-Methyl 9-acetoxy-2-(8,8a,9,12,12a,13-hexahydro-8,13:9,12-diepoxy-5H-dibenzo[3,4:6,7]cyclohept[1,2]naphthanen-5-on-10-yl)-6a,10b-dimethyl-4,10-dioxododecahydro-1H-benzo[f]isochromene-7-carboxylate]
- Ki ± SD (nM) DOP (DOP receptors): no appreciable affinity

SMILES: COC(=O)[C@@H]1C[C@H](OC(C)=O)C(=O)[C@H]2[C@@]1(C)CC[C@H]1C(=O)O[C@H](C3=CC4OC3C3C4C4OC3(C)c3c4c4ccccc4c(=O)c4ccccc34)C[C@]21C (stereo partly drawn) [Compound 12, (2S,4aR,6aR,7R,9S,10aS,10bR)-Methyl 9-acetoxy-2-(8,8a,9,12,12a,13-hexahydro-8-methyl-8,13:9,12-diepoxy-5H-dibenzo[3,4:6,7]cyclohept[1,2]naphthanen-5-on-10-yl)-6a,10b-dimethyl-4,10-dioxododecahydro-1H-benzo[f]isochromene-7-carboxylate]
- Fold increase in affinity for KOP receptors (KOP receptors [4]): 44 fold

SMILES: COC(=O)c1ccc([C@@H]2C[C@]3(C)[C@H]4C(=O)[C@@H](OC(C)=O)C[C@@H](C(=O)OC)[C@]4(C)CC[C@H]3C(=O)O2)cc1C(=O)OC [Compound 14, Dimethyl 4-((2S,4aR,6aR,7R,9S,10aS,10bR)-9-acetoxy-7-(methoxycarbonyl)-6a,10b-dimethyl-4,10-dioxododecahydro-1H-benzo[f]isochromen-2-yl)phthalate]
- Ki (KOP receptors [4]): 0.228 µM

SMILES: COC(=O)[C@@H]1C[C@H](OC(C)=O)C(=O)[C@H]2[C@@]1(C)CC[C@H]1C(=O)O[C@H](c3ccc4ccccc4c3)C[C@]21C [Compound 15, (2S,4aR,6aR,7R,9S,10aS,10bR)-methyl 9-acetoxy-6a,10b-dimethyl-2-(naphthalen-2-yl)-4,10-dioxododecahydro-1H-benzo[f]isochromene-7-carboxylate]
- Ki (KOP receptors [4]): 0.286 µM
